This is an account of results in patent US20240189285A1, “COMPOSITION AND METHOD FOR ENHANCING MITOCHONDRIAL BIOGENESIS AND ACTIVATING PGC-1A” (NANJING NUTRABUILDING BIO-TECH CO., LTD., priority 2021, published 2024).

Holding throughout (type): cell-based
Test [1] relates to target cells (endothelial cells, C2C12 skeletal muscle cells, etc.). Description: Mitochondrial biogenesis in vitro: mitochondrial mass (flow cytometry, fluorescent microscopy) and mtDNA copy number (quantitative PCR). As for the experimental part:
(§1) Target cells (endothelial cells, C2C12 skeletal muscle cells, etc.) are obtained according to conventional methods in the art.
The target cells (endothelial cells, C2C12 skeletal muscle cells, etc.) were divided into groups A, B, C and D. B and D group cells were cultured with 50 μM L-Ergothioneine for 12 hours. A and C groups were not cultured with Ergothioneine but only with the usual nutrient solution for 12 hours. Then a certain concentration of H2O2 was used to cause C and D group cells damage, no H2O2 was used on A and B groups. Mitochondrial biogenesis was measured by quantifying both mitochondrial mass and mitochondrial DNA (mtDNA) contents. Mitochondrial mass was measured by flow cytometry and fluorescent microscopy, mtDNA copy number was analyzed by quantitative PCR.

For another test, the system named is Sirt1. Description: Sirt1 protein level by Western blot in target cells. As for the experimental part:
as §1
(§2) The target cells (endothelial cells, C2C12 skeletal muscle cells, etc.) are divided into groups A, B, C and D. B and D group cells were cultured with 50 μM L-Ergothioneine for 12 hours, and A and C groups were not cultured with Ergothioneine but only with the usual nutrient solution for 12 hours. Then a certain concentration of H2O2 was used to cause C and D group cells damage, no H2O2 was used on A and B groups. Then PGC-1α protein expression and Sirt1 protein level were analyzed by Western blot.

Another test concerns PGC-1α. Description: PGC-1α protein expression by Western blot in target cells. As for the experimental part:
as §1, §2

[2] abbreviates: group B: 50 μM L-Ergothioneine for 12 hours, no H2O2, untreated group A = 100.

As for `C[N+](C)(C)[C@@H](Cc1c[nH]c(=S)[nH]1)C(=O)[O-]` [L-Ergothioneine], the Relative mitochondrial mass in test [1] (setting [2]) is 112%; in test [1] (group D: 50 μM L-Ergothioneine for 12 hours, then H2O2 damage, H2O2-only group C = 78), 90%. Further, the “Relative mtDNA content” value in test [1] (setting [2]) is 118%; in test [1] (group D: 50 μM L-Ergothioneine for 12 hours, then H2O2 damage, H2O2-only group C = 89), 93%. In addition, the “Sirt1 level (Western blot)” value with Sirt1 (group B: 50 μM L-Ergothioneine for 12 hours, no H2O2, untreated group A about 0.79) was ~0.85; in the test on Sirt1 (group D: 50 μM L-Ergothioneine for 12 hours, then H2O2 damage, H2O2-only group C about 0.65), ~0.75. Besides, the “PGC-1α level (Western blot)” value is reported as ~0.005 with PGC-1α (group B: 50 μM L-Ergothioneine for 12 hours, no H2O2, untreated group A about 0.0046) and ~0.0043 with PGC-1α (group D: 50 μM L-Ergothioneine for 12 hours, then H2O2 damage, H2O2-only group C about 0.0036).
